Results: patent US11446270B2, “Leonurine crystal and use thereof in preparation of insulin sensitizer, hypoglycemic drug and lipid-lowering drug” (ZHUHAI HENGQIN NEW DISTRICT ZHONGZHU ZHENGTAI MEDICAL …, priority 2017, dated 2022)
“Also recorded” adds a separate entry of the source.

Assays:
Sprague-Dawley rats = experiment: Chronic administration for 3 weeks, fasting blood glucose of rats; format: in vivo, rat; settings: vs solvent control, listed as leonurine crystal form A
Protocol: (§1) Forty male Sprague-Dawley rats weighed 180 to 220 g were randomly divided into 4 groups (10 rats each group): control group are treated with equal volume of DMSO, and the treatment groups were administered at 30 mg/kg per day, 60 mg/kg per day, and 120 mg/kg per day of leonurine crystal form A respectively, where leonurine crystal form A was dissolved in DMSO at concentrates of 30 mg/ml, 60 mg/ml and 120 mg/ml, and the volume of vehicle administered intragastrically in each rat was 1 ml per kg of body weight. The rats were treated with leonurine crystal form A or DMSO once a day continuously for 3 weeks, and the body weight and fasting blood-glucose were detected at third week. The rats were fasted (allowed water ad libitum) for 12 h before experiment. Fasting blood-glucose and body weight were tested after 1 h of administered drugs. The rats were not given drugs on the next days for one week, and the body weight and fasting blood-glucose were detected at forth week. The data were analyzed by SPSS statistical software (version 11.5), and results were expressed as the mean±standard error of the mean (mean±SEM). Multiple group comparisons were tested by one-way analysis of variance (ANOVA). P<0.05 was considered as statistically significant.

[1] = Chronic administration for 3 weeks, body weight of rats; format: in vivo, rat; settings: fourth week (one week after discontinuation), vs solvent control, listed as leonurine crystal form A
Protocol: as §1

Sprague-Dawley male rats [2] = experiment: Chronic continuous administration for 7 days, insulin sensitivity test in rats; format: in vivo; settings: rat, vs control, listed as leonurine crystal form A
Protocol: Twenty Sprague-Dawley male rats (body weight 180-220 g) were randomly divided into 4 groups, give control solvent and three different doses of leonurine crystal form A respectively. The control solvent group was given an equal volume of DMSO, and the treatment groups were administered at three doses of 30 mg/kg, 60 mg/kg and 120 mg/kg respectively, 5 rats per group, where the leonurine crystal form A was dissolved in DMSO at concentrations of 30 mg/ml, 60 mg/ml and 120 mg/ml respectively. The volume of solvent used per rat is one millilitre per kilogram of body weight. The rats were administered intragastrically with the drugs or control solvent once a day for 7 consecutive days, and performing insulin sensitivity test on the 7th day. The rats were treated with the drugs or control solvent on the day of the test, and weighed before administration, then taking blood from tail vein to measure blood glucose. Each rat was tested for insulin sensitivity 1 hour after administration of the drugs or control solvent, and the rats were not fed food for 4 hours before the insulin sensitivity test to make them fasted but still given water. The insulin dose in the insulin sensitivity test is 0.75 units per kilogram of body weight, and insulin was injected through intraperitonealion. Blood glucose was measured before injection and at 15, 30, 60, 90, and 120 minutes after injection. The data were analyzed by SPSS statistical software (version 11.5), and the results were expressed as mean ±standard error of the mean (mean±SEM). Multiple group comparisons were tested by one-way analysis of variance (ANOVA). P<0.05 was considered as statistically significant.

[3] = previous toxicological study; cited from earlier work
Sprague-Dawley male rats [4] = experiment: Single dosage acute administration, insulin sensitivity test in rats; format: in vivo; settings: rat, vs DMSO control
Protocol: Thirty-two Sprague-Dawley male rats (body weight 180-220 g) were randomly divided into 4 groups, gave control solvent and three different doses of leonurine crystal form A respectively. The control solvent group was given an equal volume of DMSO, and the treatment groups were administered with three doses of 30 mg/kg, 60 mg/kg and 120 mg/kg respectively, 8 rats per group, where the leonurine crystal form A was dissolved in DMSO at concentrations of 30 mg/ml, 60 mg/ml and 120 mg/ml respectively. The volume of solvent obtained per rat is one millilitre per kilogram of body weight. The route of administration is gavage, weighing before gavage, and taking blood from tail vein to measure blood glucose. Each rat was tested for insulin sensitivity 1 hour after administration of drugs or control solvent, the dose of insulin selected was 0.5 units per kilogram of body weight, intraperitoneal injection of insulin, blood glucose was measured before injection and at 15, 30, 60, 90, and 120 minutes after injection. The data were analyzed by SPSS 11.5 statistical software, and the results were expressed as mean ±standard error of the mean (mean±SEM), pairwise comparison between groups was examined by one-way analysis of variance (ANOVA), P<0.05 was considered significant difference between the groups.

ApoE knockout mice = experiment: Serum lipids in hyperlipidemia ApoE knockout mice on high fat diet; format: in vivo; settings: 4 weeks
Protocol: Fifteen C57BL/6J mice (male, 6-8 weeks) and seventy-five ApoE knockout mice (male, 6-8 weeks) were used for experiments. C57BL/6J mice were fed with normal diet, and ApoE knockout mice were fed for 1 week with a diet of normal/high fat diet ratio of 1/1.
Mice were weighed before administered drugs every week, where the dosage of the drug for mice is calculate according to the weight; and housed under 24±1° C. room temperature and 55±5% air humidity condition, and allowed enough food and water ad libitum. After the drug administration continuously for 4 weeks, the mice were anesthetized with pentobarbital sodium according to body weight. Blood (0.5 ml per mouse) was drawn from the inner canthus vein for hematology analysis. Hematology analysis: blood samples were let for standing for 2 h and centrifuged (3000 rpm, 10 min, 4° C.) to obtain serum. The total cholesterol (TC), triacylglycerol (TG) and low-density cholesterol (LDL-C) levels in the serum samples were assessed using automatic biochemical analyzer. Statistical analysis: GraphPad Prism 5 software was used to analyze and draw figure. Results were expressed as the mean±standard (mean±SD), and statistical analysis was performed by one-way analysis of variance (ANOVA) or student's t test. A difference with P<0.05 was considered statistically significant. Statistical significance was set at *P<0.05, **P<0.01, ***P<0.001 versus the model group.

[5] = dose not stated, listed as leonurine crystal form A
[6] = middle dose group 20 mg/kg/day intragastric, vs model group, listed as leonurine crystal form A

COc1cc(C(=O)OCCCCNC(=N)N)cc(OC)c1O [crystal form A, 4-guanidino-1-butyl 4-hydroxy-3,5-dimethoxybenzoate]
fasting blood glucose of rats (Sprague-Dawley rats; 60 mg/kg/d for 3 weeks, fourth week): significantly reduced; also recorded: decreased fasting blood glucose
fasting blood glucose of rats (Sprague-Dawley rats; 60 mg/kg/d, after 3 weeks of continuous administration): had not statistically difference; also recorded: not statistically significant
fasting blood glucose of rats (Sprague-Dawley rats; 120 mg/kg/d for 3 weeks, fourth week): significantly reduced; also recorded: decreased fasting blood glucose
fasting blood glucose of rats (Sprague-Dawley rats; 120 mg/kg/d, after 3 weeks of continuous administration): significant reduce; also recorded: significantly decreased
weight of rats ([1]; 60 mg/kg/d for 3 weeks): significantly reduced; also recorded: significantly decreased
weight of rats ([1]; 120 mg/kg/d for 3 weeks): had not statistically difference; also recorded: not statistically significant
insulin sensitivity curve (Sprague-Dawley male rats [2]; 30 mg/kg/d for 7 days, 30 minute time point, 30 mg/kg/day): increased insulin sensitivity; also recorded: decreased significantly
insulin sensitivity curve (Sprague-Dawley male rats [2]; 30 mg/kg/d for 7 days, 60 minute time point, 30 mg/kg/day): increased insulin sensitivity; also recorded: decreased significantly
insulin sensitivity curve (Sprague-Dawley male rats [2]; 30 mg/kg/d for 7 days, 90 minute time point, 30 mg/kg/day): increased insulin sensitivity; also recorded: decreased significantly
insulin sensitivity curve (Sprague-Dawley male rats [2]; 60 mg/kg/d for 7 days, 30 minute time point, 60 mg/kg/day): increased insulin sensitivity; also recorded: decreased significantly
insulin sensitivity curve (Sprague-Dawley male rats [2]; 60 mg/kg/d for 7 days, 60 minute time point, 60 mg/kg/day): increased insulin sensitivity; also recorded: decreased significantly
insulin sensitivity curve (Sprague-Dawley male rats [2]; 60 mg/kg/d for 7 days, 90 minute time point, 60 mg/kg/day): increased insulin sensitivity; also recorded: decreased significantly
insulin sensitivity curve (Sprague-Dawley male rats [2]; 120 mg/kg/d for 7 days, 60 minute time point, 120 mg/kg/day): increased insulin sensitivity; also recorded: decreased significantly
toxicity [3]: very low
insulin sensitivity curve (blood glucose after insulin injection) (Sprague-Dawley male rats [4]; single gavage 30 mg/kg): basically coincident with the control group
insulin sensitivity curve (blood glucose after insulin injection) (Sprague-Dawley male rats [4]; single gavage 60 mg/kg, 60 minute time point, listed as leonurine crystal form A, 60 mg/kg): reached statistical significance; also recorded: decreased significantly
insulin sensitivity curve (blood glucose after insulin injection) (Sprague-Dawley male rats [4]; single gavage 120 mg/kg, 60 minute time point): no statistically significant difference was observed
serum low-density lipoprotein / low-density cholesterol (LDL-C) (ApoE knockout mice; [5]): reduce; also recorded: significantly decrease
serum total cholesterol (TC) (ApoE knockout mice; [5]): reduce; also recorded: significantly decrease
serum triglycerides / triacylglycerol (TG) (ApoE knockout mice; [5]): reduce; also recorded: significantly decrease
serum total cholesterol (TC) (ApoE knockout mice; middle dose group 20 mg/kg/day intragastric, vs model group): reduced
serum low-density cholesterol (LDL-C) (ApoE knockout mice; [6]): reduced; also recorded: decrease
serum triacylglycerol (TG) (ApoE knockout mice; [6]): reduced; also recorded: decrease
